Patent US20150258101A1 (Proximagen Limited, priority 2014, published 2015)

Tests used:
[1] = target: T1, purified recombinantly expressed human SSAO (Homo sapiens, UniProt Q16853); assay: SSAO enzyme inhibition assay (benzylamine substrate; hydrogen peroxide/HRP-coupled or 14C aldehyde detection); type: biochemical; details: SSAO inhibitory activity, RT
T1 construct: made in house
T1 sequence (Q16853 1-763): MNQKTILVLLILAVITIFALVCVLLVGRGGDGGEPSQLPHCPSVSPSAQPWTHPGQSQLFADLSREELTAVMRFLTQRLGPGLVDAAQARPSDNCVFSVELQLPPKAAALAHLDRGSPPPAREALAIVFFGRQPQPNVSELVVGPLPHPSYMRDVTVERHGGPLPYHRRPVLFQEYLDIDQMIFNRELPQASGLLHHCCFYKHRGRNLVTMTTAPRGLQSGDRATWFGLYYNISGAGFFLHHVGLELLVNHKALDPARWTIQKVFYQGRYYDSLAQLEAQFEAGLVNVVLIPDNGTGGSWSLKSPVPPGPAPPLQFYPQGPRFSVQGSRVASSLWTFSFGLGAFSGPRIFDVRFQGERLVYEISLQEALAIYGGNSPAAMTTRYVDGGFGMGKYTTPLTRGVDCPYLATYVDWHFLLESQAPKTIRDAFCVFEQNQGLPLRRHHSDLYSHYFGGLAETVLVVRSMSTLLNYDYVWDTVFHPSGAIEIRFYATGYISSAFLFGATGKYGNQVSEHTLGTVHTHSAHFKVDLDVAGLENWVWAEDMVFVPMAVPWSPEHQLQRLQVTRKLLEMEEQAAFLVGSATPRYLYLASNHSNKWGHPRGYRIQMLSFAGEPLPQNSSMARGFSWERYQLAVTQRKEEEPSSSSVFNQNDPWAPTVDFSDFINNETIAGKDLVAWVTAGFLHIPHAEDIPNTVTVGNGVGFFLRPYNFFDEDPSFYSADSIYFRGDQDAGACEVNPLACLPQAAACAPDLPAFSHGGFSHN
Method in brief: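 IC50 values came from a four-parameter logistic fit of % signal decrease versus DMSO control, with no-enzyme background subtracted. Two read-outs were used with human recombinant SSAO after ~15 min compound pre-incubation at RT. In the H2O2/HRP-Amplex read-out, enzyme was 1 ug/ml and benzylamine 100 uM (pH 7.4 phosphate), with resorufin fluorescence followed 1-2 h. In the 14C-benzaldehyde read-out (PBS), enzyme was 10 ug/ml and benzylamine 40 uM, run 1 h then acid-stopped.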

[2] = target: T2, human ether a go-go related gene (hERG) K+ channel (Homo sapiens, UniProt Q12809); assay: hERG assay, IonWorks patch clamp electrophysiology; type: cell-based; details: Chinese Hamster Lung cell line stably expressing hERG; max assay concentration 11 uM
T2 construct: a Chinese Hamster Lung cell line stably expressing the full length hERG channel; expressed in transfected cells; host or cells: Chinese Hamster Lung cell line
Procedure: Compounds of the invention were tested for inhibition of the human ether a go-go related gene (hERG) K^+ channel using IonWorks patch clamp electrophysiology. 8 Point concentration-response curves were generated on two occasions using 3-fold serial dilutions from the maximum assay concentration (11 uM). Electrophysiological recordings were made from a Chinese Hamster Lung cell line stably expressing the full length hERG channel. Single cell ion currents were measured in the perforated patch clamp configuration (100 ug/mL amphoterocin) at room temperature using an IonWorks Quattro instrument. The internal solution contained 140 mM KCl, 1 mM MgCl2, 1 mM EGTA and 20 mM HEPES and was buffered to pH 7.3. The external solution contained 138 mM NaCl, 2.7 mM KCl, 0.9 mM CaCl2, 0.5 mM MgCl2, 8 mM Na2HPO4 and 1.5 mM KH2PO4, and was buffered to pH 7.3. […] This sequence was repeated 5 times at a frequency of 0.25 Hz. Currents were measured from the tail step at the 5th pulse, and referenced to the holding current. Compounds were incubated for 6-7 min prior to a second measurement of the hERG signal using an identical pulse train. […] A control compound (quinidine) was used (see Table 20 below).

T2 sequence (Q12809 whole entry): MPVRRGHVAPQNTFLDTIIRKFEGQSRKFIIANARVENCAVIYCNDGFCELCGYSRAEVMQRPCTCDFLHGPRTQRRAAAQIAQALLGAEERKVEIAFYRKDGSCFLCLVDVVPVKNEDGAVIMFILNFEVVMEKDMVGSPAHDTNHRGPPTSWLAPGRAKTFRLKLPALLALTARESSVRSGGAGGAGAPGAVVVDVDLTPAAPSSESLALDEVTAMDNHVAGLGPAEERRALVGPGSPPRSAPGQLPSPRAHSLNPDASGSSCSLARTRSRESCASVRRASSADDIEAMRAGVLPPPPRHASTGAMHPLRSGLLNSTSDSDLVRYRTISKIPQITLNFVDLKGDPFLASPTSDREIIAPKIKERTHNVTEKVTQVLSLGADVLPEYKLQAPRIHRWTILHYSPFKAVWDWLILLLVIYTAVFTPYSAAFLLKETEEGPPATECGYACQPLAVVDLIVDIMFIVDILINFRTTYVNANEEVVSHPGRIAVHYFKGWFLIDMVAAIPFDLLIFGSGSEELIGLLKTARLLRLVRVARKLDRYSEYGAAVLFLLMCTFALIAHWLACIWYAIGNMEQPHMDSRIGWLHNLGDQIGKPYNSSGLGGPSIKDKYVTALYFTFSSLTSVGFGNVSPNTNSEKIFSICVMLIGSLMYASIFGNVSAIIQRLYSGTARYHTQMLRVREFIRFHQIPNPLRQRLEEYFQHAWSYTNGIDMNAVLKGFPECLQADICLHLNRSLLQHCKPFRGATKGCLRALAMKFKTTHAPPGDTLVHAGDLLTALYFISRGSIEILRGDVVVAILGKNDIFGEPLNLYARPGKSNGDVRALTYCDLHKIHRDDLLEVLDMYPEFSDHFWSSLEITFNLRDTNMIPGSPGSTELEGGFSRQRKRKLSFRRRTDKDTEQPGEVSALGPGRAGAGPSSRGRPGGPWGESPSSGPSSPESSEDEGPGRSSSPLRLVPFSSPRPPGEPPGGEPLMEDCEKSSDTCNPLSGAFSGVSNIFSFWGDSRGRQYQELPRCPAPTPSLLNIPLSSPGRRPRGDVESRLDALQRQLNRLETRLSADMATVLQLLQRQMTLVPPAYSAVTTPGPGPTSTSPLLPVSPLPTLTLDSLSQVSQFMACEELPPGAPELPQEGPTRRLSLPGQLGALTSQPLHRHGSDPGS

Row | SMILES | IC50 [1] [µM] | IC50 [2] [µM]
1 | Clc1ccc(-n2c(-c3ccc(N4CCNCC4)nc3)nc3ccncc32)cc1 [Example 50, 1-{5-[3-(4-Chlorophenyl)-3H-imidazo[4,5-c]pyridin-2-yl]pyridin-2-yl}piperazine] | < 0.05 | > 10
2 | O=c1cc(-c2cc3ccncc3n2-c2ccc(Cl)cc2)cc[nH]1 [Example 142, 4-[1-(4-Chlorophenyl)-1H-pyrrolo[2,3-c]pyridin-2-yl]-1,2-dihydropyridin-2-one] | 0.05 to 0.2 | 1 to 10
3 | O=C1CN(c2ncc(-c3cc4ccncc4n3-c3ccc(Cl)cc3)cn2)CCN1 [Example 128, 4-{5-[1-(4-Chlorophenyl)-1H-pyrrolo[2,3-c]pyridin-2-yl]pyrimidin-2-yl}piperazin-2-one] | < 0.05 | > 10
4 | Clc1ccc(-n2c(-c3ccncc3)cc3ccncc32)cc1 [Example 120, 4-[1-(4-Chlorophenyl)-1H-pyrrolo[2,3-c]pyridin-2-yl]pyridine] | 0.2 to 1.2 | 1 to 10
5 | Fc1cc(Cl)ccc1-n1c(-c2cnc(N3CCOCC3)nc2)nc2ccncc21 [Example 77, 4-{5-[3-(4-Chloro-2-fluorophenyl)-3H-imidazo[4,5-c]pyridin-2-yl]pyrimidin-2-yl}morpholine] | 0.2 to 1.2 | > 10
6 | Fc1cc(Cl)ccc1-n1c(-c2ccc(N3CCOCC3)nc2)nc2ccncc21 [Example 80, 4-{5-[3-(4-Chloro-2-fluorophenyl)-3H-imidazo[4,5-c]pyridin-2-yl]pyridin-2-yl}morpholine] | 0.05 to 0.2 | > 10
7 | Clc1ccc(-n2c(-c3ccc(N4CCOCC4)nc3)nc3ccncc32)nc1 [Example 81, 4-{5-[3-(5-Chloropyridin-2-yl)-3H-imidazo[4,5-c]pyridin-2-yl]pyridin-2-yl}morpholine] | < 0.05 | > 10
8 | Nc1cc(-c2cc3ccncc3n2-c2ccc(Cl)cc2)ccn1 [Example 147, 4-[1-(4-Chlorophenyl)-1H-pyrrolo[2,3-c]pyridin-2-yl]pyridin-2-amine] | < 0.05 | 1 to 10
9 | Fc1ccc(-n2c(-c3cnc(NC4CCOCC4)nc3)nc3ccncc32)cc1 [Example 20, 5-[3-(4-Fluorophenyl)-3H-imidazo[4,5-c]pyridin-2-yl]-N-(oxan-4-yl)pyrimidin-2-amine] | 0.05 to 0.2 | > 10
10 | Nc1ccc(-c2nc3ccncc3n2-c2ccc(Cl)cc2)cn1 [Example 110, 5-[3-(4-Chlorophenyl)-3H-imidazo[4,5-c]pyridin-2-yl]pyridin-2-amine] | 0.2 to 1.2 | > 10
11 | CC(=O)NC1CCN(c2ccc(-c3nc4ccncc4n3-c3ccc(Cl)cc3)cn2)CC1 [Example 85, N-(1-{5-[3-(4-Chlorophenyl)-3H-imidazo[4,5-c]pyridin-2-yl]pyridin-2-yl}piperidin-4-yl)acetamide] | < 0.05 | > 10
12 | C[C@@H]1CN(c2ncc(-c3nc4ccncc4n3-c3ccc(F)cc3)cn2)C[C@H](C)O1 [Example 23, (2R,6S)-4-{5-[3-(4-Fluorophenyl)-3H-imidazo [4,5-c]pyridin-2-yl]pyrimidin-2-yl}-2,6-dimethylmorpholine] | < 0.05 | > 10
13 | Fc1ccc(-n2c(-c3cnc(N4CCOCC4)nc3)nc3ccncc32)c(F)c1 [Example 78, 4-{5-[3-(2,4-Difluorophenyl)-3H-imidazo[4,5-c]pyridin-2-yl]pyrimidin-2-yl}morpholine] | < 0.05 | > 10
14 | Clc1ccc(-n2c(-c3ccc(CN4CCOCC4)nc3)nc3ccncc32)cc1 [Example 3, 4-({5-[3-(4-Chlorophenyl)-3H-imidazo[4,5-c]pyridin-2-yl]pyridin-2-yl}methyl) morpholine] | 0.05 to 0.2 | > 10
15 | Fc1ccc(-n2c(-c3cnc(N4CCCC4)nc3)nc3ccncc32)cc1 [Example 69, 5-[3-(4-Fluorophenyl)-3H-imidazo[4,5-c]pyridin-2-yl]-2-(pyrrolidin-1-yl)pyrimidine] | < 0.05 | > 10
16 | Cc1ccc(-n2c(-c3cnc(N4CCOCC4)nc3)nc3ccncc32)c(F)c1 [Example 53, 4-{5-[3-(2-Fluoro-4-methylphenyl)-3H-imidazo[4,5-c]pyridin-2-yl]pyrimidin-2-yl}morpholine] | 0.2 to 1.2 | > 10
17 | Fc1cnccc1-c1cc2ccncc2n1-c1ccc(Cl)cc1 [Example 152, 4-[1-(4-Chlorophenyl)-1H-pyrrolo[2,3-c]pyridin-2-yl]-3-fluoropyridine] | 0.2 to 1.2 | 1 to 10
18 | O=C1CN(c2ncc(-c3nc4ccncc4n3-c3ccc(Cl)cc3)cn2)CCN1 [Example 13, 4-{5-[3-(4-Chlorophenyl)-3H-imidazo[4,5-c]pyridin-2-yl]pyrimidin-2-yl}piperazin-2-one] | < 0.05 | > 10
19 | Fc1ccc(-n2c(-c3ccc(N4CCOCC4)nc3)nc3ccncc32)cc1 [Example 54, 4-{5-[3-(4-Fluorophenyl)-3H-imidazo[4,5-c]pyridin-2-yl]pyridin-2-yl}morpholine] | 0.2 to 1.2 | > 10
20 | Cc1cc(N2CCOCC2)ncc1-c1nc2ccncc2n1-c1ccc(F)cc1 [Example 21, 4-{5-[3-(4-Fluorophenyl)-3H-imidazo[4,5-c]pyridin-2-yl]-4-methylpyridin-2-yl}morpholine] | < 0.05 | > 10
21 | CS(=O)(=O)NC1CCN(c2ccc(-c3nc4ccncc4n3-c3ccc(Cl)cc3)cn2)CC1 [Example 88, N-(1-{5-[3-(4-Chlorophenyl)-3H-imidazo[4,5-c]pyridin-2-yl]pyridin-2-yl}piperidin-4-yl)methanesulfonamide] | < 0.05 | 1 to 10
22 | CC1CN(c2ccc(-c3nc4ccncc4n3-c3ccc(F)cc3)cn2)CCO1 (centres unmarked) [Example 70, 4-{5-[3-(4-Fluorophenyl)-3H-imidazo[4,5-c]pyridin-2-yl]pyridin-2-yl}-2-methylmorpholine] | < 0.05 | > 10
23 | COCCN(C)c1ncc(-c2nc3ccncc3n2-c2ccc(C)cc2)cn1 [Example 117, N-(2-Methoxyethyl)-N-methyl-5-[3-(4-methylphenyl)-3H-imidazo[4,5-c]pyridin-2-yl]pyrimidin-2-amine] | 0.2 to 1.2 | > 10
24 | CN(C)c1ccc(-c2nc3ccncc3n2-c2ccc(F)cc2)cn1 [Example 71, 5-[3-(4-Fluorophenyl)-3H-imidazo[4,5-c]pyridin-2-yl]-N,N-dimethylpyridin-2-amine] | 0.2 to 1.2 | > 10
25 | CC(=O)N1CCN(c2ccc(-c3nc4ccncc4n3-c3ccc(F)cc3)cn2)CC1 [Example 86, 1-(4-{5-[3-(4-Fluorophenyl)-3H-imidazo[4,5-c]pyridin-2-yl]pyridin-2-yl}piperazin-1-yl)ethan-1-one] | < 0.05 | > 10
26 | CN1CCN(Cc2ccc(-c3nc4ccncc4n3-c3ccc(Cl)cc3)cc2)CC1 [Example 46, 1-({4-[3-(4-Chlorophenyl)-3H-imidazo[4,5-c]pyridin-2-yl]phenyl}methyl)-4-methylpiperazine; formic acid] | < 0.05 | > 10
27 | Cc1ccc(-n2c(-c3cnc(N4CCOCC4)nc3)nc3ccncc32)cc1 [Example 57, 4-{5-[3-(4-Methylphenyl)-3H-imidazo[4,5-c]pyridin-2-yl]pyrimidin-2-yl}morpholine] | 0.05 to 0.2 | > 10
28 | O=C1CN(c2ncc(-c3nc4ccncc4n3-c3ccc(F)cc3)cn2)CCN1 [Example 12, 4-{5-[3-(4-Fluorophenyl)-3H-imidazo[4,5-c]pyridin-2-yl]pyrimidin-2-yl}piperazin-2-one] | 0.05 to 0.2 | > 10
